From patent US20130261077A1 (priority 2012, published 2013)

Tests used:
FimH-CRD [1] = molecular target: T1, FimH-CRD (Escherichia coli, UniProt P08191); assay: Competitive binding assay by fluorescence polarization, assay 1 (compounds prepared by manual serial dilution)
T1 construct: The first 177 amino acids of the FimH protein; thrombin tag (printed as 'fusion protein with thrombin') (cleaved yes); made in house; host or cells: bacteria (pET21b plasmid)
In short: (§1)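 Fluorescence-polarization competition of 5 nM Alexa 647 mannoside probe with 60 nM FimH-CRD (first 177 residues, tag removed) in Tris-Cl pH 7.0, NaCl, EDTA, β-ME, BSA, 2.5% DMSO, 5 h at RT in the dark. Twelve-point 3-fold titrations (0.4 nM–75 μM) in duplicate; Kd interpolated from displacement curves.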

FimH-CRD [2] = molecular target: T1, FimH-CRD; assay: Competitive binding assay by fluorescence polarization, assay 2 (compounds prepared by robotics, plates frozen and thawed)
In short: as §1

T1 sequence (P08191 22-177): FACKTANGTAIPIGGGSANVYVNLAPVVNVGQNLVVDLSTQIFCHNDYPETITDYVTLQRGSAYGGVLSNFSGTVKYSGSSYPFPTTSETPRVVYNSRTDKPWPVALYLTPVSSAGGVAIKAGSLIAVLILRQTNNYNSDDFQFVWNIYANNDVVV

| Compound | IC50 (FimH-CRD [1]) | Kd (FimH-CRD [1]) | Kd (FimH-CRD [2]) |
| --- | --- | --- | --- |
| OC[C@H]1O[C@H](c2cccc(-c3cncnc3)c2)[C@@H](O)[C@@H](O)[C@@H]1O [Compound 10, (2R,3S,4R,5S,6R)-2-(hydroxymethyl)-6-(3-pyrimidin-5-ylphenyl)tetrahydropyran-3,4,5-triol] | 99 nM | 13.4 ± 6.6 nM | 10.1 ± 0.6 nM |
| CNC(=O)c1cc(C(=O)NC)cc(-c2ccccc2[C@H]2O[C@H](CO)[C@@H](O)[C@H](O)[C@@H]2O)c1 [Compound 40, N^3,N^5-dimethyl-2′-((2R,3S,4R,5S,6R)-3,4,5-trihydroxy-6-(hydroxymethyl)tetrahydro-2H-pyran-2-yl)-[1,1′-biphenyl]-3,5-dicarboxamide] | 2050 nM | 474 ± 49.5 nM | 447 ± 490 nM |
| Cn1cnc2ccc(-c3cccc([C@H]4O[C@H](CO)[C@@H](O)[C@H](O)[C@@H]4O)c3)cc21 [Compound 4, (2R,3S,4R,5S,6R)-2-(hydroxymethyl)-6-[3-(3-methylbenzimidazol-5-yl)phenyl]tetrahydropyran-3,4,5-triol] | 19 nM | 5.1 ± 0.1 nM | 13.6 ± 6.1 nM |
| Cc1nnc(-c2ccc(-c3cccc([C@H]4O[C@H](CO)[C@@H](O)[C@H](O)[C@@H]4O)c3)cc2)o1 [Compound 48, (2R,3S,4R,5S,6R)-2-(hydroxymethyl)-6-[3-[4-(5-methyl-1,3,4-oxadiazol-2-yl)phenyl]phenyl]tetrahydropyran-3,4,5-triol] | 34 nM | < 5 nM | 8.5 ± 1.3 nM |
| OC[C@H]1O[C@H](c2cc(O)ccc2Cl)[C@@H](O)[C@@H](O)[C@@H]1O [Compound 68, (2R,3S,4R,5S,6R)-2-(2-chloro-5-hydroxyphenyl)-6-(hydroxymethyl)tetrahydro-2H-pyran-3,4,5-triol] | 22 nM | 22.1 ± 10.1 nM | 35 ± 21.2 nM |
| CC(C)C(=O)Nc1ccc(Oc2cccc([C@H]3O[C@H](CO)[C@@H](O)[C@H](O[C@H]4O[C@H](CO)[C@@H](O)[C@H](O)[C@@H]4O)[C@@H]3O)c2)cc1 [Compound 273, N-[4-[3-[(2R,3R,4R,5R,6R)-3,5-Dihydroxy-6-(hydroxymethyl)-4-[(2R,3S,4S,5S,6R)-3,4,5-trihydroxy-6-(hydroxymethyl)tetrahydropyran-2-yl]oxy-tetrahydropyran-2-yl]phenoxy]phenyl]-2-methyl-propanamide] | 38 nM | 12.1 ± 5.7 nM | 21.8 ± 5.2 nM |
| N#Cc1ccc(-c2cccc([C@H]3O[C@H](CO)[C@@H](O)[C@H](O)[C@@H]3O)c2)cc1 [Compound 22, 3′-((2R,3S,4R,5S,6R)-3,4,5-trihydroxy-6-(hydroxymethyl)tetrahydro-2H-pyran-2-yl)-[1,1′-biphenyl]-4-carbonitrile] | 49 nM | 6.6 ± 0.8 nM | 14.2 ± 11.1 nM |
| Cc1nnc(-c2cccc(-c3ccc([C@H]4O[C@H](CO)[C@@H](O)[C@H](O)[C@@H]4O)cc3)c2)o1 [Compound 130, (2R,3S,4R,5S,6R)-2-(hydroxymethyl)-6-[4-[3-(5-methyl-1,3,4-oxadiazol-2-yl)phenyl]phenyl]tetrahydropyran-3,4,5-triol] | – | < 5 nM | 46.2 nM |
| CCCCNC(=O)c1cccc([C@H]2O[C@H](CO)[C@@H](O)[C@H](O)[C@@H]2O)c1 [Compound 38, N-butyl-3-((2R,3S,4R,5S,6R)-3,4,5-trihydroxy-6-(hydroxymethyl)tetrahydro-2H-pyran-2-yl)benzamide] | – | 50.4 ± 3.6 nM | 72.4 ± 34.8 nM |
| OC[C@H]1O[C@H](c2cccc(Br)c2)[C@@H](O)[C@@H](O)[C@@H]1O [Intermediate C, (2R,3S,4R,5S,6R)-2-(3-bromophenyl)-6-(hydroxymethyl)tetrahydro-2H-pyran-3,4,5-triol] | – | 24 ± 5 nM | 27 nM |
| CNC(=O)c1cc(Oc2cccc([C@H]3O[C@H](CO)[C@@H](O)[C@H](O)[C@@H]3O)c2)cc(C(=O)NC)c1 [Compound 64, N1,N3-dimethyl-5-(3-((2R,3S,4R,5S,6R)-3,4,5-trihydroxy-6-(hydroxymethyl)tetrahydro-2H-pyran-2-yl)phenoxy)isophthalamide] | 55 nM | 15 ± 2.6 nM | 20.7 ± 16.8 nM |
| COC(=O)COc1cccc([C@H]2O[C@H](CO)[C@@H](O)[C@H](O[C@H]3O[C@H](CO)[C@@H](O)[C@H](O)[C@@H]3O)[C@@H]2O)c1 [Compound 286, Methyl 2-[3-[(2R,3R,4R,5R,6R)-3,5-dihydroxy-6-(hydroxymethyl)-4-[(2R,3S,4S,5S,6R)-3,4,5-trihydroxy-6-(hydroxymethyl)tetrahydropyran-2-yl]oxy-tetrahydropyran-2-yl]phenoxy]acetate] | 63 nM | 17.4 ± 4.8 nM | 35.1 ± 16.7 nM |
| COC(=O)c1cc(Oc2ccc([C@H]3O[C@H](CO)[C@@H](O)[C@H](O)[C@@H]3O)cc2)cc(C(=O)OC)c1 [Compound 53, dimethyl 5-(4-((2R,3S,4R,5S,6R)-3,4,5-trihydroxy-6-(hydroxymethyl)tetrahydro-2H-pyran-2-yl)phenoxy)isophthalate] | 25 nM | < 5 nM | 15.7 ± 10.2 nM |
| OC[C@H]1O[C@H](c2cccc(-c3cc(Cl)cc(Cl)c3)c2)[C@@H](O)[C@@H](O)[C@@H]1O [Compound 79, (2R,3S,4R,5S,6R)-2-[3-(3,5-Dichlorophenyl)phenyl]-6-(hydroxymethyl)tetrahydropyran-3,4,5-triol] | – | < 5 nM | 12.8 ± 0.9 nM |
| OC[C@H]1O[C@H](c2cccc(-c3cc4ccccc4s3)c2)[C@@H](O)[C@@H](O)[C@@H]1O [Compound 12, (2R,3S,4R,5S,6R)-2-[3-(benzothiophen-2-yl)phenyl]-6-(hydroxymethyl)tetrahydropyran-3,4,5-triol] | 67 nM | 9.2 ± 4.4 nM | 11.7 ± 6.1 nM |
